Reference: patent US20170052170A1, “NOVEL CELL LINES AND METHODS” (priority 2009, published 2017)
pEC50: −log10 of the molar value.

Target: T1, sweet taste receptor (T1R2/T1R3) (Homo sapiens, UniProt Q7RTX0+Q8TE23, C757R/I191V/I486V/R317G)
T1 construct: expressed in transfected cells; host or cells: HEK293T (ATCC CRL-11268)
T1 sequence (Q8TE23 20-839 I191V/R317G/I486V): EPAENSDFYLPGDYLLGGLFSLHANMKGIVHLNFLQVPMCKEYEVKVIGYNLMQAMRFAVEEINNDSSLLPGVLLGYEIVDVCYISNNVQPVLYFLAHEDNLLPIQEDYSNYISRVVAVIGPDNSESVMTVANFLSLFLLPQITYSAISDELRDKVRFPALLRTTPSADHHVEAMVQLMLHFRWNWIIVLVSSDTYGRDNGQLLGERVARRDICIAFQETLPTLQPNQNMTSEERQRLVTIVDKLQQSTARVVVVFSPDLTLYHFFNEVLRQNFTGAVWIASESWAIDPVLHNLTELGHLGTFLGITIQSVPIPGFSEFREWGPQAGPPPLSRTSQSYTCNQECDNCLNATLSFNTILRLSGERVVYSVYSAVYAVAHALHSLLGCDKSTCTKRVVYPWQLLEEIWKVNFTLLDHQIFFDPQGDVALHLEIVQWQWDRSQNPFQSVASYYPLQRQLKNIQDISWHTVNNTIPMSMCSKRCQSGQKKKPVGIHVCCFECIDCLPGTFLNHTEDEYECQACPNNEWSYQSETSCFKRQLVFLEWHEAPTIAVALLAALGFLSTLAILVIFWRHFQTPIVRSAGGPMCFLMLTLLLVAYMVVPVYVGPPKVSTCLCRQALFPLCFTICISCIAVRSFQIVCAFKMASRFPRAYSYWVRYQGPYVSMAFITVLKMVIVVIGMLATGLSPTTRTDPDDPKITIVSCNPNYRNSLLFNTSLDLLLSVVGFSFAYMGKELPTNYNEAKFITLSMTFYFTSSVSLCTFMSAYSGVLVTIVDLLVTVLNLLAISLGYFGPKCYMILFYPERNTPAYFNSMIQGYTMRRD
T1 sequence (Q7RTX0 21-852 C757R): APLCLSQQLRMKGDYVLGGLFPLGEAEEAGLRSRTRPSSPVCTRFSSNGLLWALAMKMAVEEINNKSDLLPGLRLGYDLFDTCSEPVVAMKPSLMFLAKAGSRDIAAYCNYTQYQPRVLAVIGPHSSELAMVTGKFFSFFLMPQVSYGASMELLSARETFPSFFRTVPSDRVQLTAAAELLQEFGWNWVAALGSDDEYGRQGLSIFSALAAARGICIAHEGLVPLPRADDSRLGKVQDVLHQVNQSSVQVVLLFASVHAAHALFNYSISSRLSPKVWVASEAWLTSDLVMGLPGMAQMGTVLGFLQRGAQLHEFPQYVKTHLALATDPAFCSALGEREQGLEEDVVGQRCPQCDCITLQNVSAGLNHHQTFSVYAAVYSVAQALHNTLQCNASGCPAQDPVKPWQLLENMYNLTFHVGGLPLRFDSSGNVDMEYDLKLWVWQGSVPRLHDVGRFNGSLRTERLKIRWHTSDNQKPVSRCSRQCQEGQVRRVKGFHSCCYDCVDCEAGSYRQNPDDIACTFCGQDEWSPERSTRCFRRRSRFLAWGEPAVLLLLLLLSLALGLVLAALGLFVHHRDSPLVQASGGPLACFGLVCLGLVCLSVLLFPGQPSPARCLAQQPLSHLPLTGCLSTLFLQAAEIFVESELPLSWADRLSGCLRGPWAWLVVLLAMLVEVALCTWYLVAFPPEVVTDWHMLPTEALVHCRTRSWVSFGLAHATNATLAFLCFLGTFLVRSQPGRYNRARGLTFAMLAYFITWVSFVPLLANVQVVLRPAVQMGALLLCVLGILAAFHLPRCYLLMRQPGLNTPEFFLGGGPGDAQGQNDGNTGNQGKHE
Test: Sweet cell-based calcium flux assay, HEK293T cells expressing T1R2, T1R3 and mouse Gα15
Text: Plates are then loaded on a high throughput plate reader (Hamamatsu FDSS). […] Calcium flux is detected for 90 seconds.

O=C(CO)[C@@H](O)[C@H](O)[C@H](O)CO [fructose]
pEC50: > 2.37 | response of cells grown in the "Final" growth conditions (FIG. 20, high density, coated plates, low glucose media, serum deprivation): respond robustly
